# Data from patent US20100331181A1, “Method for Protecting Cereals From Being Infected By Fungi” (BASF SE, priority 2008, published 2010).
# Key:
# Puccinia recondita = assay: Greenhouse: preventative control of brown rust on wheat; type: in vivo; conditions: 0.25 ppm, wheat seedlings sprayed 1 day before inoculation, % of untreated control
# Protocol: The spray solutions were prepared in several steps:
# The stock solution were prepared: a mixture of acetone and/or dimethylsulfoxide and the wetting agent/emulsifier Wettol®, which is based on ethoxylated alkylphenoles, in a relation (volume) solvent-emulsifier of 99 to 1 was added to 25 mg of the compound to give a total of 10 ml.
# Water was then added to total volume of 100 ml.
# This stock solution was diluted with the described solvent-emulsifier-water mixture to the given concentration.
# The product epoxiconazole was used as commercial finished formulation and diluted with water to the stated concentration of the active compound.
# Preventative Control of Brown Rust on Wheat Caused by Puccinia recondite
# The first two developed leaves of pot-grown wheat seedling were sprayed to run-off with an aqueous suspension, containing the concentration of active ingredient or their mixture as described below. The next day the plants were inoculated with spores of Puccinia recondita. To ensure the success the artificial inoculation, the plants were transferred to a humid chamber without light and a relative humidity of 95 to 99% and 20 to 22 °C. for 24 h. Then the trial plants were cultivated for 6 days in a greenhouse chamber at 22-26° C. and a relative humidity between 65 and 70%. The extent of fungal attack on the leaves was visually assessed as % diseased leaf area. […]
# (§1) The expected efficacies of active compound mixtures were determined using Colby's formula [R. S. Colby, “Calculating synergistic and antagonistic responses of herbicide combinations”, Weeds 15, 20-22 (1967)] and compared with the observed efficacies.
# The visually determined percentages of infected leaf areas were converted into efficacies in % of the untreated control.
# The efficacy (E) is calculated as follows using Abbot's formula: […]
# The expected efficacies of active compound combinations were determined using Colby's formula (Colby, S. R. “Calculating synergistic and antagonistic responses of herbicide combinations”, Weeds, 15, pp. 20-22, 1967) and compared with the observed efficacies. […]
# Rhizoctonia solani = assay: Microtest (micro titer plate): activity against Rhizoctonia solani; type: cell-based; conditions: 7 days after inoculation
# Text: (§2) The active compounds were formulated separately as a stock solution having a concentration of 10000 ppm in dimethyl sulfoxide.
# (§3) Epoxiconazole was used as commercial finished formulation and diluted with water to the stated concentration of the active compound.
# B) 1. Activity against Rhizoctonia solani
# (§4) The stock solutions were mixed according to the ratio, pipetted onto a micro titer plate (MTP) and diluted with water to the stated concentrations. A spore suspension of Septoria tritici in an aqueous biomalt solution was then added. The plates were placed in a water vapor-saturated chamber at a temperature of 18° C. Using an absorption photometer, the MTPs were measured at 405 nm 7 days after the inoculation.
# (§5) The measured parameters were compared to the growth of the active compound-free control variant (100%) and the fungus-free and active compound-free blank value to determine the relative growth in % of the pathogens in the respective active compounds. These percentages were converted into efficacies. An efficacy of 0 means that the growth level of the pathogens corresponds to that of the untreated control; an efficacy of 100 means that the pathogens were not growing.
# as §1
# Septoria tritici = assay: Microtest (micro titer plate): activity against Septoria tritici; type: cell-based; conditions: 7 days after inoculation
# Text: as §2, §3
# B) 2. Activity against Septoria tritici
# as §4, §5, §1
SMILES,Observed efficacy (Puccinia recondita) [%],Observed efficacy (Rhizoctonia solani; 0.004 ppm) [%],Observed efficacy (Rhizoctonia solani; 0.016 ppm) [%],Observed efficacy (Septoria tritici; 0.016 ppm) [%],Observed efficacy (Rhizoctonia solani; 0.001 ppm) [%],Observed efficacy (Septoria tritici; 0.004 ppm) [%]
"CC1(C)CCC(Cc2ccc(Cl)cc2)C1(O)Cn1cncn1 (stereo not drawn) [Metconazole, metconazole]",33,26,62,19,–,–
OC(Cc1ccccc1Cl)(Cn1nc[nH]c1=S)C1(Cl)CC1 (stereo not drawn) [Prothioconazole],0,–,11,5,–,–
"Cn1cc(C(=O)Nc2ccc(F)cc2-c2ccc(Cl)c(Cl)c2)c(C(F)F)n1 [Bixafen, N-(3′,4′-dichloro-5-fluorobiphenyl-2-yl)-3-(difluoromethyl)-1-methylpyrazole-4-carboxamide]",0,7,–,–,0,–
"Cc1nn(C)c(F)c1C(=O)Nc1ccccc1C(C)CC(C)C (stereo not drawn) [Compound (II), N-[2-(1,3-dimethylbutyl)-phenyl]-1,3-dimethyl-5-fluor-1H-pyrazole-4-carboxamide]",–,–,–,–,–,0
"Fc1ccc([C@]2(Cn3cncn3)O[C@H]2c2ccccc2Cl)cc1 (racemic) [Epoxiconazole, epoxiconazole]",–,0,–,–,–,–
